#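 Cells were grown in 96-well plates and exposed to each compound for 48 hours at five concentrations; endpoints were interpolated linearly between bracketing concentrations, or set to the highest concentration if not reached. GI50 is the concentration that inhibits growth by half. TGI: total growth inhibition.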
# Key:
# Assay in all cases: NCI anticancer screen, dose series, 48 h
# CCRF-CEM leukemia = system: CCRF-CEM leukemia
# KM12 colon = system: KM12 colon
# NCI-H23 lung = system: NCI-H23 lung
# NCI-H226 lung = system: NCI-H226 lung
# BT-549 breast = system: BT-549 breast
# SN12C renal = system: SN12C renal
# MDA-N = system: MDA-N
# UO-31 renal = system: UO-31 renal
# SW-620 colon = system: SW-620 colon
# NCI/ADR-RES ovarian = system: NCI/ADR-RES ovarian
# ACHN renal = system: ACHN renal
# HCC-2998 colon = system: HCC-2998 colon
# SNB-19 CNS = system: SNB-19 CNS
# SNB-75 CNS = system: SNB-75 CNS
# CAKI-1 renal = system: CAKI-1 renal
# U251 CNS = system: U251 CNS
Compound,TGI (CCRF-CEM leukemia),TGI (KM12 colon),TGI (NCI-H23 lung),TGI (NCI-H226 lung),TGI (BT-549 breast),TGI (SN12C renal),TGI (MDA-N),TGI (UO-31 renal),TGI (SW-620 colon),TGI (NCI/ADR-RES ovarian),TGI (ACHN renal),TGI (HCC-2998 colon),TGI (SNB-19 CNS),TGI (SNB-75 CNS),TGI (CAKI-1 renal),TGI (U251 CNS),GI50 (SN12C renal)
CCCC(=O)OC[n+]1cccc(-c2c(COC(=O)NC(C)C)c(COC(=O)NC(C)C)c3n2CCC3)c1,> 66.3 µM,> 100 µM,> 100 µM,> 100 µM,> 100 µM,> 100 µM,> 100 µM,> 100 µM,> 100 µM,> 100 µM,> 100 µM,> 100 µM,> 100 µM,> 100 µM,46 µM,> 100 µM,
N#CC(C#N)=C(N)/C(C#N)=C/c1cc(O)c(O)c(Br)c1,> 100 µM,> 100 µM,> 100 µM,> 79.1 µM,> 100 µM,> 100 µM,> 100 µM,> 100 µM,> 100 µM,> 100 µM,> 100 µM,> 100 µM,> 100 µM,> 100 µM,> 100 µM,> 100 µM,
O=C(Nc1ccccc1C(=O)O)/C(=C/c1ccccc1)NC(=O)c1ccccc1,> 100 µM,> 100 µM,> 100 µM,> 100 µM,> 100 µM,> 100 µM,> 100 µM,> 100 µM,> 100 µM,> 100 µM,> 100 µM,> 100 µM,> 100 µM,> 100 µM,> 100 µM,> 100 µM,
O=c1cc(-c2ccccc2)oc2ccc(Oc3nnnn3-c3ccccc3)cc12,> 100 µM,> 100 µM,> 93.2 µM,> 100 µM,70.7 µM,> 100 µM,> 100 µM,> 100 µM,> 100 µM,> 100 µM,> 100 µM,> 100 µM,> 82.6 µM,> 92.5 µM,> 86.5 µM,> 74.7 µM,
O=C1CC(=O)c2c(Cl)sc(Cl)c21,> 100 µM,> 100 µM,> 100 µM,> 100 µM,> 100 µM,> 100 µM,> 100 µM,> 100 µM,> 100 µM,> 100 µM,> 100 µM,,,> 100 µM,> 100 µM,> 100 µM,
CCN1CC2=C(NC(=S)NC2c2cc(OC)c(OC)c(OC)c2)/C(=C/c2cc(OC)c(OC)c(OC)c2)C1 (centres undefined),> 100 µM,> 100 µM,> 100 µM,> 100 µM,> 100 µM,,> 100 µM,67.7 µM,> 100 µM,> 100 µM,> 100 µM,88.8 µM,> 100 µM,20.8 µM,> 100 µM,> 100 µM,
CC(=O)Nc1cc2c(cc1O)CC[C@@H]1[C@@H]2CC[C@]2(C)[C@@H](O)CC[C@@H]12,> 100 µM,31.4 µM,> 100 µM,> 100 µM,86.3 µM,> 100 µM,52.1 µM,97.9 µM,71.9 µM,55.9 µM,> 100 µM,82.4 µM,> 100 µM,,> 100 µM,> 100 µM,48.5 µM
COc1cc2c(cc1OC)C1(c3ccccc3)CN(C2)Cc2cc(OC)c(OC)cc21,61.4 µM,> 100 µM,68.3 µM,91.4 µM,80.1 µM,> 100 µM,> 100 µM,> 100 µM,> 100 µM,74.9 µM,> 100 µM,50.1 µM,> 100 µM,92.3 µM,> 100 µM,54.6 µM,
O=P1(Oc2ccc(Cl)cc2)OCCS1 (centres undefined),> 100 µM,,> 100 µM,> 100 µM,> 100 µM,> 100 µM,> 100 µM,> 100 µM,> 100 µM,> 100 µM,> 100 µM,> 100 µM,> 100 µM,> 100 µM,,> 100 µM,
CN(C)C=Nc1cccc2cnccc12,> 100 µM,,> 100 µM,> 100 µM,> 100 µM,> 100 µM,> 100 µM,> 100 µM,,> 100 µM,> 100 µM,,> 100 µM,> 100 µM,> 100 µM,> 100 µM,
Cc1c(CCCl)c(N=[N+]=[N-])n2c(nc3ccccc32)c1C#N,0.987 µM,3.27 µM,2.95 µM,4.29 µM,2.1 µM,3.13 µM,3.12 µM,3.32 µM,1.21 µM,5.53 µM,2.85 µM,,8.37 µM,2.87 µM,3 µM,6.02 µM,
CC1=CCC[C@@H]2[C@@](C)(Cc3cc(O)ccc3O)[C@H](C)CC[C@@]12C,15.1 µM,16.4 µM,14.1 µM,39.3 µM,13.1 µM,27 µM,17 µM,12.8 µM,25.2 µM,18.9 µM,18 µM,22.5 µM,21.5 µM,17.9 µM,25.7 µM,15.9 µM,
CCCN(CCCCN1C(=O)c2ccccc2C1=O)CC1COc2ccccc2O1 (centres undefined),88.8 µM,> 100 µM,> 100 µM,> 100 µM,> 100 µM,> 100 µM,> 100 µM,> 100 µM,> 100 µM,> 100 µM,> 100 µM,> 100 µM,> 100 µM,> 100 µM,> 100 µM,> 100 µM,
O=[N+]([O-])c1cccc2nc3ccccc3c(NCCCN3CCOCC3)c12,0.13 µM,0.054 µM,0.0418 µM,0.0501 µM,0.115 µM,0.0455 µM,0.0149 µM,0.0564 µM,0.686 µM,0.341 µM,0.0506 µM,,0.177 µM,0.114 µM,0.0785 µM,0.14 µM,
Cc1c[nH]c(C(=O)O)c1-c1ccc2c(-c3ccccc3)nc3ccccc3n12,> 100 µM,56.8 µM,> 100 µM,57.8 µM,> 100 µM,> 100 µM,48.4 µM,> 100 µM,> 100 µM,48.1 µM,> 100 µM,56.9 µM,,56.4 µM,> 100 µM,> 100 µM,

# — PubChem BioAssay (NCI)
